What was measured:
5HT-1A receptor = molecular target: T1, 5HT-1A receptor (Homo sapiens, UniProt P08908); test: 5HT-1A agonist PathHunter β-arrestin assay; design: Emax: dose or concentration left out as unconfirmed; conditions: for Emax: CHO-K1, read-out: 5HT-1A agonism, % of the maximum response of serotonin
T1 sequence (P08908 1-422): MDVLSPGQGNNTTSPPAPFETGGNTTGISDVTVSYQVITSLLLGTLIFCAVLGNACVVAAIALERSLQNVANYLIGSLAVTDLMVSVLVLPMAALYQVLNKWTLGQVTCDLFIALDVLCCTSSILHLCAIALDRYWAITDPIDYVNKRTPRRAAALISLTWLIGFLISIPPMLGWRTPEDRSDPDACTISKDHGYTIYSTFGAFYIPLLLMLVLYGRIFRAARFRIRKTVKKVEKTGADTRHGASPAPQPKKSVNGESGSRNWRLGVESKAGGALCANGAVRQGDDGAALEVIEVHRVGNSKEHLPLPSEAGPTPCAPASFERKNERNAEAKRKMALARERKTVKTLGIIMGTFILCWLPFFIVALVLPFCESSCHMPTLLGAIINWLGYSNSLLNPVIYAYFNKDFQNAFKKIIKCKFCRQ
From the text: (§1) One hundred percent relative activity was normalized to maximum stimulation of endogenous agonists and 0% relative activity to compound vehicle control.
For the 5HT-1A agonist assay, PathHunter® β-arrestin cells (CHO-K1) were expanded from freezer stocks according to standard procedures provided by Eurofins. The cell line manual was followed for cell growth (including cell culture media and supplementation, cell handling and preparation, etc.), test procedure, and signal detection.
In summary, cells were seeded at a total volume of 20 µL (10,000 cells) into white-walled, 384-well microplates and incubated at 37 °C for the appropriate time prior to testing. After preparing stock acetonitrile solution at a 1 mg/mL concentration of ligand, compound intermediate concentrations were achieved by a 10-point series of 3-fold compound serial dilutions in a compound dilution buffer in a separate dilution plate. The concentration of each dilution was prepared at 5× of the final screening concentration. […] Then, 12.5 μL Working Detection Solution was added, and the cells were incubated for 1 h at room temperature in the dark. The assay signal was generated through a single addition of 15 µL (50% v/v) of the PathHunter Detection reagent cocktail, followed by a one-hour incubation at room temperature. Microplates were read following signal generation with a PerkinElmer Envision instrument for chemiluminescent signal detection.

CB2 receptor [1] = molecular target: T2, CB2 receptor (Homo sapiens, UniProt P34972); test: CB2 antagonist cAMP assay (HitHunter cAMP XS+), CP55,940 challenge; type: cell-based; conditions: for Emax: read-out: CB2 antagonist activity, % of the maximum effect of SR144528, highest tested concentration (12 µM), CP55,940 1 nM
T2 construct: host or cells: CHO-K1 (from the C2 catalogue suffix and 'same protocol' as CB1)
Method: In summary, cells were seeded in a total volume of 20 µL (10,000 cells) into white-walled, 384-well microplates and incubated at 37 °C for the appropriate time prior to testing. […] The assay signal was generated through incubation with 20 μL cAMP XS+ ED/CL lysis cocktail for one hour, followed by incubation with 20 μL cAMP XS+ EA reagent for three hours at room temperature. Microplates were read following signal generation with a PerkinElmer Envision instrument for chemiluminescent signal detection.
(§2) For the CB1 and CB2 antagonist assays, cells were pre-incubated with antagonists/compounds, followed by an agonist challenge at an ~EC80 concentration. Similar to the agonist assay, before adding the ligands, media were aspirated from cells and replaced with 15 µL 2:1 HBSS/10mM HEPES/cAMP XS+ Ab reagent. A total of 5 μL of 4× compound solution, prepared in a separate plate by a 10-point series of 3-fold compound serial dilutions in assay buffer (forskolin excluded), was added to the cells and incubated at 37 °C for 30 min. […] The assay signal was generated through incubation with 20 μL cAMP XS+ ED/CL lysis cocktail for one hour, followed by incubation with 20 μL cAMP XS+ EA reagent for three hours at room temperature. A PerkinElmer Envision instrument was used for chemiluminescent signal detection.

CB2 receptor [2] = molecular target: T2, CB2 receptor; test: Radioligand binding assay, displacement of [3H]-CP55940 at CB2; conditions: 1 µM compound; 100% = 1 µM WIN55212-2
Method: A total of 750 nl of the reference and test compounds was transferred to a 96-well compound plate, and 150 µL assay buffer was added to each well to achieve a 5× final concentration. The plates were centrifuged for 30 s at 1000 rpm and then agitated at 600 rpm and room temperature for 5 min.
Separately, 50 µL of 0.5% v/v PEI was added to each well of UniFilter-96 GF/C plates. The plates were sealed and incubated at 4 °C for 3 h. After incubation, they were washed 2 times with ice-cold wash buffer.
The cell membrane was diluted with assay buffer, and 330 µL was transferred to 96 round deep-well plates to reach a concentration of 10 µg/well. […] The plates were centrifuged at 1000 rpm for 30 s and then agitated at 600 rpm for 5 min (room temperature). The plates were sealed and incubated at 30 °C for 90 min. The incubation was stopped by vacuum filtration onto GF/C filter plates, followed by washing 4 times with ice-cold wash buffer. The plates were dried at 37 °C for 45 min. After the addition of 40 µL of scintillation cocktail, a Microbeta2 microplate counter was used to detect the radioactivity signals.

[3] = molecular target: T3, mu-opioid receptor (MOR, OPRM1) (Homo sapiens, UniProt P35372); type: cell-based; conditions: for Increase in the met-enkephalin internalization signal: 10 µM compound, 30 min pre-treatment, then 1 µM met-enkephalin
T3 construct: host or cells: U2OS (methods); the results text b24 says CHO-K1
Method: For the MOR antagonist/NAM assay, PathHunter® OPRM1 (opioid receptor mu 1) total GPCR (G protein-coupled receptors) internalization U2OS cell lines were expanded from freezer stocks according to standard procedures. The cell line manual was followed for cell growth (including cell culture media and supplementation, cell handling and preparation, etc.), test procedures, and signal detection.
In summary, cells were seeded in a total volume of 20 µL (10,000 cells) into white-walled, 384-well microplates and incubated at 37 °C overnight prior to testing. After preparing a stock acetonitrile solution at a 1 mg/mL concentration of ligand, compound intermediate concentrations were achieved by a 10-point series of 3-fold compound serial dilutions in a compound dilution buffer in a separate dilution plate. The concentration of each dilution was prepared at 10× of the final screening concentration. […] A PerkinElmer Envision instrument was used for chemiluminescent signal detection.

CB1 receptor = molecular target: T4, CB1 receptor (Homo sapiens, UniProt P21554); test: CB1 antagonist cAMP assay (HitHunter cAMP XS+), CP55,940 challenge; type: cell-based; conditions: for Emax: CHO-K1, read-out: CB1 antagonist activity, % of the maximum response of AM251; for Concentration at which CB1 antagonist activity above the baseline appeared: CP55,940 1 nM, CHO-K1
T4 construct: host or cells: CHO-K1
Method: (§3) In summary, cells were seeded in a total volume of 20 µL (10,000 cells) into white-walled, 384-well microplates and incubated at 37 °C for the appropriate time prior to testing.
as §2

dopamine D2S receptor = molecular target: T5, dopamine D2S receptor (Homo sapiens, UniProt P14416); test: D2S agonist HitHunter cAMP XS+ assay; type: cell-based; design: Emax: dose or concentration left out as unconfirmed
T5 construct: host or cells: CHO-K1
Method: as §1
For the D2S agonist assay, cAMP CHO-K1 Hunter cell lines were expanded from freezer stocks according to standard procedures. The cell line manual was followed for cell growth (including cell culture media and supplementation, cell handling and preparation, etc.), test procedures, and signal detection.
as §3

mice = system: mice; design: method as in PMID 31889124; conditions: doses 2.5 to 10 mg/kg; cited from earlier work
MOR = system: MOR; design: method as in PMID 35412886; conditions: 10 µM; cited from earlier work

T3 sequence (P35372 whole entry): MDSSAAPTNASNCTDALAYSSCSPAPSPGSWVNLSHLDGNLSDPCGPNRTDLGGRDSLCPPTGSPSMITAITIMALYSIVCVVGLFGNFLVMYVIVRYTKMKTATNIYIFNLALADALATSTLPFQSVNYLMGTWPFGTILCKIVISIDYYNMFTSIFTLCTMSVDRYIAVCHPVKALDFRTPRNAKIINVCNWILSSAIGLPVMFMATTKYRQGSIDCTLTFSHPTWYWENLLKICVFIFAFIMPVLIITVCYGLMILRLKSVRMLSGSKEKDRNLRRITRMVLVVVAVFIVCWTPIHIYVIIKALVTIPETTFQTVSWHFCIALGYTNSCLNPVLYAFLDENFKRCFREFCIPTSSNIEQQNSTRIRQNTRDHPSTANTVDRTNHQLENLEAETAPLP
T2 sequence (P34972 whole entry): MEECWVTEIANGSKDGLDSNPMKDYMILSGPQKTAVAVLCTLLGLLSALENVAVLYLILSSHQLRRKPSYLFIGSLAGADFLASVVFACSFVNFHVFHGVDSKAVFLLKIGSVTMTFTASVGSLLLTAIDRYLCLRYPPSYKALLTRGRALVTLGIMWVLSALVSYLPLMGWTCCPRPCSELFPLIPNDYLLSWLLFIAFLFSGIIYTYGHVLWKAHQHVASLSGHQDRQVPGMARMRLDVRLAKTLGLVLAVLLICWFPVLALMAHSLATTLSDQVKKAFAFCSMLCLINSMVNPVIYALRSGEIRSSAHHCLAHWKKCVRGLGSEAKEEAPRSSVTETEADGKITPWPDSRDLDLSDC
T4 sequence (P21554 whole entry): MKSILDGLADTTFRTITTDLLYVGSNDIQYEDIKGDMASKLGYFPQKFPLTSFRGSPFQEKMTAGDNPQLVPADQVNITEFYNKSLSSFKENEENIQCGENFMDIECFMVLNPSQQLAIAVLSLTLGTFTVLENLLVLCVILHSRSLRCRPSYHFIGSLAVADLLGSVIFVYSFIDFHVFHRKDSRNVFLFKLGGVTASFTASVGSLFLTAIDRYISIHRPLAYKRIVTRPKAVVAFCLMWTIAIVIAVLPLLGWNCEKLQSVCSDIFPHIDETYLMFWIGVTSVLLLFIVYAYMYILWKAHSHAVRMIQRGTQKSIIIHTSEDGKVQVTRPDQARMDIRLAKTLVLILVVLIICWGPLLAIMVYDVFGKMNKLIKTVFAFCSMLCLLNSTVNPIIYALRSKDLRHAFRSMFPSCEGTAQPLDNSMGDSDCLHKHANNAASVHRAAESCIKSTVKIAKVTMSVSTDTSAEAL
T5 sequence (P14416 1-414 isoform P14416-2): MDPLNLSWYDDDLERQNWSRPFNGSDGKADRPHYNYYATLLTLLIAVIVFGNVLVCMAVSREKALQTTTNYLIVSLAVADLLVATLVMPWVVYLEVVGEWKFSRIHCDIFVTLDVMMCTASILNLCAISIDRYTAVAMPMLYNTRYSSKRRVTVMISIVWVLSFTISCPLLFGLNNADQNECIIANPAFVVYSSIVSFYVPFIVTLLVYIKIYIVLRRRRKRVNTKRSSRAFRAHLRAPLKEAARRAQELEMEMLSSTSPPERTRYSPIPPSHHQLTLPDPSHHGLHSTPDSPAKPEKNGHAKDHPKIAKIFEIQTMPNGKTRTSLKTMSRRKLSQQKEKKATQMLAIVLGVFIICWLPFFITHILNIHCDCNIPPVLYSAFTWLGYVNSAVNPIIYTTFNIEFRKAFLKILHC

Row | Structure (SMILES) | EC50 (5HT-1A receptor) [µM] | Emax (5HT-1A receptor) [%] | Emax (CB2 receptor [1]) [%] | Displacement of radiolabeled CP55940 at the CB2 binding site (CB2 receptor [2]) | Increase in the met-enkephalin internalization signal [3] [%] | Emax (CB1 receptor) [%] | Concentration at which CB1 antagonist activity above the baseline appeared (CB1 receptor) [µM] | Emax (dopamine D2S receptor; CHO-K1, read-out: D2S agonist activity, % maximum response of dopamine) [%] | In vivo effects in mice (mice) | IC50 (CB2 receptor [1]; read-out: CB2 antagonist IC50 (not reached within tested concentrations)) [µM] | Met-enkephalin-induced mu-opioid internalization (in words) ([3]; 3 µM compound and 1 µM met-enkephalin) | IC50 (CB1 receptor; read-out: CB1 antagonist IC50 (not reached within tested range)) [µM] | D2S agonism (in words) (dopamine D2S receptor; within the tested concentration range (up to 12 µM)) | Activity of MOR in GTP turnover rate assay (MOR) [%]
1 | C=C(C)[C@@H]1CCC(C)=C[C@H]1c1c(O)cc(CCCCC)cc1O [CBD, Cannabidiol, reference compound] | > 12 | ~20 | ~33 | approximately 50% | 18 | ~20 | 3 | 10.7 |  |  |  |  |  | 
2 | CCCCCCCc1cc(O)c2c(c1)OC(C)(C)[C@@H]1CCC(C)=C[C@@H]21 [Δ9-THCP, tetrahydrocannabiphorol] |  |  |  |  |  |  |  |  | induce THC-like hypomotility, analgesia, and catalepsy |  |  |  |  | 
3 | C=C(C)[C@@H]1CCC(C)=C[C@H]1c1c(O)cc(CCCCCCC)cc1O [CBDP, cannabidiphorol] | > 12 | ~20 | ~23 | approximately 50% | 37 | ~20 | 3 |  |  | > 12 | significant increase | > 12 | did not show any sign of agonism | 
4 | COc1ccc(C2SCCN2S(=O)(=O)c2ccc(Cl)cc2)cc1Br (stereo not drawn) [BMS-986122] |  |  |  |  |  |  |  |  |  |  |  |  |  | 166

Source: publication PMC11277192 (International Journal of Molecular Sciences, 2024)
